Type in all cases: functional
One test deals with Candida albicans. In words: Antifungal activity against Candida albicans SC5314 measured after 24 to 48 hrs by CLSI method. To be noted: time 24-48 hrs.
The test system of the next test is Candida parapsilosis. Put plainly: Antifungal activity against Candida parapsilosis ATCC 22019 measured after 24 to 48 hrs by CLSI method. The conditions noted are these: Lodderomyces parapsilosis, time 24-48 hrs.
The test system of the next test is Cryptococcus neoformans. Put plainly: Antifungal activity against Cryptococcus neoformans H99 measured after 24 to 48 hrs by CLSI method. To be noted: time 24-48 hrs.
The subject of another test is Pichia kudriavzevii. In words: Antifungal activity against Candida krusei IFM56881 measured after 24 to 48 hrs by CLSI method. The conditions noted are these: time 24-48 hrs.

Each structure is given as a SMILES string. In brackets after ≈: the same amount, converted by molar mass. Peptide text beside a SMILES is read from it.

`CC[C@H](C)[C@H](NC(=O)[C@H](C)NC(=O)[C@H](CS)NC(=O)[C@H](CO)NC(=O)[C@@H](NC(=O)[C@H](Cc1ccccc1)NC(=O)[C@@H](N)Cc1ccc(O)cc1)[C@@H](C)CC)C(=O)N[C@@H](Cc1cnc[nH]1)C(=O)N[C@@H](Cc1ccccc1)C(=O)N[C@@H](CCCCN)C(=O)N[C@H](C(=O)N[C@@H](CC(C)C)C(=O)N[C@@H](CCCCN)C(=O)N[C@H](C(=O)N[C@@H](CCCNC(=N)N)C(=O)N[C@@H](CO)C(=O)N[C@@H](C)C(=O)N[C@@H](C)C(=O)N[C@@H](CCCCN)C(=O)N[C@@H](CCCNC(=N)N)C(=O)N[C@@H](CCCNC(=N)N)C(=O)N[C@@H](CCC(=O)O)C(=O)N[C@@H](Cc1cnc[nH]1)C(=O)N[C@H](C(=O)N[C@@H](CCCCN)C(=O)N[C@@H](CC(C)C)C(=O)N[C@@H](CCCNC(=N)N)C(=O)O)[C@@H](C)O)[C@@H](C)CC)[C@@H](C)CC` (H-YFISCAIHFKILKIRSAAKRREHTKLR-OH): the MIC (as a rule, the smallest concentration in the dilution series that meets the test's criterion for growth inhibition) worked out at 77.9 µM (≈ 256 µg/mL) with Candida albicans, 77.9 µM (≈ 256 µg/mL) against Candida parapsilosis, 38.9 µM (≈ 128 µg/mL) in the test with Cryptococcus neoformans and 19.5 µM (≈ 64 µg/mL) against Pichia kudriavzevii.
Consider `CC[C@H](C)[C@H](NC(=O)CNC(=O)[C@H](CCCNC(=N)N)NC(=O)[C@H](Cc1ccc(O)cc1)NC(=O)[C@H](CS)NC(=O)[C@@H](NC(=O)[C@H](CCCNC(=N)N)NC(=O)[C@H](Cc1ccccc1)NC(=O)[C@H](CS)NC(=O)[C@H](Cc1c[nH]c2ccccc12)NC(=O)[C@@H](N)CCCCN)C(C)C)C(=O)N[C@@H](CS)C(=O)N[C@@H](Cc1ccc(O)cc1)C(=O)N[C@@H](CCCNC(=N)N)C(=O)N[C@@H](CCCNC(=N)N)C(=O)N[C@@H](CS)C(=O)N[C@@H](CCCNC(=N)N)C(=O)O` (H-KWCFRVCYRGICYRRCR-OH), for which the MIC amounted to 14.1 µM (≈ 32 µg/mL) with Candida albicans, 7.05 µM (≈ 16 µg/mL) in the test with Candida parapsilosis, 3.53 µM (≈ 8.01 µg/mL) against Cryptococcus neoformans and 28.2 µM (≈ 64 µg/mL) against Pichia kudriavzevii.
The matching figures for `CC[C@H](C)[C@H](NC(=O)[C@H](CCC(N)=O)NC(=O)[C@H](CCCCN)NC(=O)[C@H](CCCCN)NC(=O)[C@H](Cc1c[nH]c2ccccc12)NC(=O)[C@@H]1CCCN1C(=O)[C@@H](NC(=O)[C@H](CC(C)C)NC(=O)[C@H](CCCNC(=N)N)NC(=O)[C@H](CC(C)C)NC(=O)[C@@H](NC(=O)[C@H](CC(C)C)NC(=O)[C@@H]1CCCN1C(=O)[C@H](CCCCN)NC(=O)[C@H](Cc1cnc[nH]1)NC(=O)[C@H](CS)NC(=O)[C@H](CCCCN)NC(=O)[C@H](CCCNC(=N)N)NC(=O)[C@H](CC(C)C)NC(=O)[C@H](CCCNC(=N)N)NC(=O)[C@@H](N)CCSC)[C@@H](C)O)C(C)C)C(=O)N[C@@H](CCSC)C(=O)O` (H-MRLRKCHKPLTLRLVPWKKQIM-OH): more than 92.2 µM, more than 92.2 µM, 92.2 µM (≈ 256 µg/mL) and more than 92.2 µM.
For `CC[C@H](C)[C@H](NC(=O)[C@@H](NC(=O)[C@H](Cc1ccccc1)NC(=O)[C@H](CS)NC(=O)[C@@H](NC(=O)[C@H](CC(C)C)NC(=O)[C@H](Cc1ccccc1)NC(=O)[C@@H](NC(=O)[C@H](Cc1ccccc1)NC(=O)CNC(=O)[C@H](Cc1ccccc1)NC(=O)[C@H](CCCCN)NC(=O)[C@H](CCCCN)NC(=O)[C@H](CCCCN)NC(=O)[C@H](CC(C)C)NC(=O)[C@@H](N)CCSC)C(C)C)C(C)C)C(C)C)C(=O)N[C@@H](Cc1ccccc1)C(=O)N[C@@H](Cc1cnc[nH]1)C(=O)N[C@@H](CO)C(=O)N[C@@H](CS)C(=O)N[C@@H](CCCCN)C(=O)O` (H-MLKKKFGFVFLVCFVIFHSCK-OH), the MIC in the test on Candida albicans, with Candida parapsilosis, against Cryptococcus neoformans and against Pichia kudriavzevii was more than 102 µM throughout.
Consider `CC[C@H](C)[C@H](NC(=O)CNC(=O)[C@H](CCCNC(=N)N)NC(=O)[C@H](Cc1ccc(O)cc1)NC(=O)[C@H](CS)NC(=O)[C@@H](NC(=O)[C@H](CCCNC(=N)N)NC(=O)[C@H](Cc1ccccc1)NC(=O)[C@H](CS)NC(=O)[C@H](Cc1c[nH]c2ccccc12)NC(=O)[C@@H](N)CCCCN)C(C)C)C(=O)N[C@@H](CS)C(=O)N[C@@H](Cc1ccc(O)cc1)C(=O)N[C@@H](CCCNC(=N)N)C(=O)N[C@@H](CCCCN)C(=O)N[C@@H](CS)C(=O)N[C@@H](CCCNC(=N)N)C(=O)O` (H-KWCFRVCYRGICYRKCR-OH), for which the MIC amounted to 14.3 µM (≈ 32 µg/mL) in the test with Candida albicans, 7.14 µM (≈ 16 µg/mL) against Candida parapsilosis, 1.79 µM (≈ 4.01 µg/mL) against Cryptococcus neoformans and 28.6 µM (≈ 64 µg/mL) against Pichia kudriavzevii.
On to `CC(C)[C@H](NC(=O)[C@H](CCCNC(=N)N)NC(=O)[C@H](Cc1ccccc1)NC(=O)[C@H](CS)NC(=O)[C@H](Cc1c[nH]c2ccccc12)NC(=O)[C@H](CCCNC(=N)N)NC(=O)[C@@H](N)CCCNC(=N)N)C(=O)N[C@@H](CS)C(=O)N[C@@H](Cc1ccc(O)cc1)C(=O)N[C@@H](CCCNC(=N)N)C(=O)NCC(=O)N[C@@H](Cc1ccccc1)C(=O)N[C@@H](CS)C(=O)N[C@@H](Cc1ccc(O)cc1)C(=O)N[C@@H](CCCNC(=N)N)C(=O)N[C@@H](CCCCN)C(=O)N[C@@H](CS)C(=O)N[C@@H](CCCNC(=N)N)C(=O)O` (H-RRWCFRVCYRGFCYRKCR-OH), for which the MIC against Candida albicans amounted to 4.07 µM (≈ 10 µg/mL); against Candida parapsilosis it was 1.02 µM (≈ 2.51 µg/mL); against Cryptococcus neoformans, 1.02 µM (≈ 2.51 µg/mL); against Pichia kudriavzevii, 4.07 µM (≈ 10 µg/mL).
Regarding `CC[C@H](C)[C@H](NC(=O)[C@H](CCCNC(=N)N)NC(=O)CNC(=O)[C@H](CC(C)C)NC(=O)[C@H](Cc1ccccc1)NC(=O)[C@H](CCC(N)=O)NC(=O)[C@H](Cc1ccccc1)NC(=O)[C@@H](N)C(C)C)C(=O)N[C@H](C(=O)N[C@@H](Cc1cnc[nH]1)C(=O)N[C@@H](Cc1cnc[nH]1)C(=O)N[C@H](C(=O)NCC(=O)N[C@@H](CC(N)=O)C(=O)N[C@@H](Cc1ccccc1)C(=O)N[C@H](C(=O)N[C@@H](Cc1cnc[nH]1)C(=O)NCC(=O)N[C@@H](Cc1ccccc1)C(=O)N[C@@H](CO)C(=O)N[C@@H](Cc1cnc[nH]1)C(=O)N[C@H](C(=O)N[C@@H](Cc1ccccc1)C(=O)O)C(C)C)C(C)C)C(C)C)[C@@H](C)CC` [Clavanin B] (H-VFQFLGRIIHHVGNFVHGFSHVF-OH), the MIC against Candida albicans, in the test on Candida parapsilosis, against Cryptococcus neoformans and against Pichia kudriavzevii was more than 95 µM each time.
With `CSCC[C@H](N)C(=O)N[C@@H](C)C(=O)N[C@H](C(=O)N[C@@H](CCCCN)C(=O)N[C@@H](CCCCN)C(=O)N[C@@H](CCCCN)C(=O)N[C@H](C(=O)N[C@H](C(=O)N[C@@H](CCCCN)C(=O)N[C@@H](CCCCN)C(=O)N[C@@H](C)C(=O)N[C@H](C(=O)N[C@@H](CCCCN)C(=O)N[C@@H](CCCCN)C(=O)N[C@H](C(=O)N[C@@H](C)C(=O)N[C@@H](CCCCN)C(=O)N[C@@H](CCCCN)C(=O)N[C@@H](C)C(=O)N1CCC[C@H]1C(=O)N[C@@H](CCCCN)C(=O)N[C@@H](CCCCN)C(=O)N[C@@H](C)C(=O)N[C@H](C(=O)N[C@@H](CCCCN)C(=O)N[C@@H](CCCCN)C(=O)N[C@H](C(=O)N[C@@H](C)C(=O)N[C@@H](CCCCN)C(=O)N[C@@H](CCCCN)C(=O)N[C@@H](CCCCN)C(=O)O)C(C)C)C(C)C)C(C)C)C(C)C)C(C)C)C(C)C)[C@@H](C)O` (H-MATKKKVVKKAVKKVAKKAPKKAVKKVAKKK-OH), the MIC against Candida albicans is more than 74.9 µM; with Candida parapsilosis, more than 74.9 µM; against Cryptococcus neoformans, 37.4 µM (≈ 128 µg/mL); in the test on Pichia kudriavzevii it was more than 74.9 µM.
As to `CC[C@H](C)[C@H](NC(=O)CNC(=O)[C@H](C)NC(=O)[C@H](CC(C)C)NC(=O)[C@H](C)NC(=O)[C@H](Cc1c[nH]c2ccccc12)NC(=O)[C@H](CC(C)C)NC(=O)[C@H](CCCCN)NC(=O)[C@H](CCCCN)NC(=O)[C@H](Cc1ccc(O)cc1)NC(=O)[C@H](CCCCN)NC(=O)[C@@H](N)CCSC)C(=O)N[C@@H](C)C(=O)N[C@@H](CC(C)C)C(=O)N[C@@H](CO)C(=O)N[C@@H](CS)C(=O)N[C@@H](CC(N)=O)C(=O)N[C@@H](CC(C)C)C(=O)N[C@@H](CC(C)C)C(=O)N[C@@H](CC(C)C)C(=O)N[C@H](C(=O)N[C@@H](C)C(=O)O)[C@@H](C)O` (H-MKYKKLWALAGIALSCNLLLTA-OH), the minimum inhibitory concentration (MIC) in the test on Candida albicans, in the test on Candida parapsilosis, against Cryptococcus neoformans and in the test on Pichia kudriavzevii was more than 106 µM each time.
With `CC[C@H](C)[C@H](NC(=O)[C@H](CCCCN)NC(=O)[C@H](CO)NC(=O)[C@H](Cc1ccccc1)NC(=O)[C@@H](NC(=O)[C@@H](NC(=O)[C@H](CCCNC(=N)N)NC(=O)[C@H](Cc1ccccc1)NC(=O)[C@@H](NC(=O)[C@H](CCCCN)NC(=O)[C@H](CC(N)=O)NC(=O)[C@@H](N)CCSC)[C@@H](C)CC)C(C)C)[C@@H](C)CC)C(=O)N[C@@H](CC(C)C)C(=O)NCC(=O)N[C@@H](CCCNC(=N)N)C(=O)N[C@@H](CC(C)C)C(=O)N[C@H](C(=O)N[C@H](C(=O)N[C@H](C(=O)O)[C@@H](C)O)C(C)C)[C@@H](C)CC` (H-MNKIFRVIFSKILGRLIVT-OH), the MIC worked out at 14.2 µM (≈ 32 µg/mL) against Candida albicans, 14.2 µM (≈ 32 µg/mL) in the test on Candida parapsilosis, 7.12 µM (≈ 16 µg/mL) against Cryptococcus neoformans and 56.9 µM (≈ 128 µg/mL) in the test on Pichia kudriavzevii.
As to `CC(C)C[C@H](NC(=O)[C@H](CCC(=O)O)NC(=O)[C@H](CCCCN)NC(=O)[C@H](CC(C)C)NC(=O)[C@@H](NC(=O)[C@@H]1CCCN1)C(C)C)C(=O)N[C@@H](CCCCN)C(=O)N[C@@H](CO)C(=O)N[C@H](C(=O)N[C@@H](CCC(N)=O)C(=O)N[C@@H](CCCCN)C(=O)N[C@H](C(=O)N[C@@H](CCCCN)C(=O)N[C@@H](CO)C(=O)NCC(=O)N[C@@H](CC(=O)O)C(=O)N[C@H](C(=O)N[C@@H](CC(C)C)C(=O)N[C@@H](Cc1ccc(O)cc1)C(=O)O)[C@@H](C)O)[C@@H](C)O)C(C)C` (H-PVLKELKSVQKTKSGDTLY-OH), the MIC with Candida albicans, against Candida parapsilosis, against Cryptococcus neoformans and with Pichia kudriavzevii was more than 120 µM each time.

Source of the values: ChEMBL document CHEMBL5113381, “Large-Scale Screening of Antifungal Peptides Based on Quantitative Structure-Activity Relationship” (2022).
